Patent publication US11530244B2, “Cyclic polypeptides for PCSK9 inhibition” (priority 2018, dated 2022)
Where a name gives a salt, the structure may show the parent alone. Starred links: 1 amine or outer side, 2 acyl side, 3 side chain; linkers in the order of their positions; H or OH if unused. Positions of bridges follow the written chain, without caps; N, C: chain ends. Non-standard residues stand in square brackets, D forms with d. Residues, ends and D or L forms follow the SMILES beside them. Groups on a side chain read outwards from the residue. *: point of attachment. Phe(3-CH2NH2) = O=C([C@H](Cc1cccc(CN[*:3])c1)N[*:1])[*:2]; PEG12 = NCCOCCOCCOCCOCCOCCOCCOCCOCCOCCOCCOCCOCCC(=O)O; Trp(5-F) = N[C@@H](Cc1c[nH]c2ccc(F)cc12)C(=O)O; Pro(cis-4-F) = O=C(O)[C@@H]1C[C@H](F)CN1; X13 = O=C(CCCCc1cccc(CCCCN[*:1])c1)[*:2]; γGlu = O=C(O)[C@H](CCC(=O)[*:2])N[*:1]; mXylylene = c1cc(C[*:1])cc(C[*:2])c1; AEF = NCCOc1ccc(C[C@H](N)C(=O)O)cc1; Palmitoyl = CCCCCCCCCCCCCCCC(=O)*; αMeP = C[C@@]1(C(=O)O)CCCN1; Aun = NCCCCCCCCCCC(=O)O; AEEA = NCCOCCOCC(=O)O; Propionyl = CCC(=O)*; Tfa = O=C(C(F)(F)F)*; Mpa = O=C(O)CCS

Assays:
Assay type in all cases: binding
PCSK9 [1] = molecular target: T1, PCSK9 (Homo sapiens (Human), UniProt Q8NBP7); experiment: PCSK9 Alexa FRET Standard assay (displacement of AlexaFluor647 tagged cyclic peptide Reagent A); conditions: 0.5 nM PCSK9, 20 nM AF cyclic peptide Reagent A
T1 sequence (Q8NBP7 153-692): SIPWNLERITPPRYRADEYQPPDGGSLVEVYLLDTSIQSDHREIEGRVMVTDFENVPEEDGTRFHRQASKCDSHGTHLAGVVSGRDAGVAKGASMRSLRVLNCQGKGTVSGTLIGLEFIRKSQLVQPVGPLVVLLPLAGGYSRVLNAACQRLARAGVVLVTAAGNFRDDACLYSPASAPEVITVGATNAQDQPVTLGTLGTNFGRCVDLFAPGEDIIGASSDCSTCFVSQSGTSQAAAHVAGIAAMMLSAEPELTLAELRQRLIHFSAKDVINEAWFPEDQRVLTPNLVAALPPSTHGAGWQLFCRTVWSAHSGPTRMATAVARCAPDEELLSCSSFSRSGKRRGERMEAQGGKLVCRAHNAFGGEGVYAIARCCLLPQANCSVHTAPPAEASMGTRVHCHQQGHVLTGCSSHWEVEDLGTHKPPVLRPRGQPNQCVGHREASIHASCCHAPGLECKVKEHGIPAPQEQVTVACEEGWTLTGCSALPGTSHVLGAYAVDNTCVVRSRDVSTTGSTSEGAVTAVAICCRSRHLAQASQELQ
In short: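 TR-FRET displacement: 0.5 nM biotinylated PCSK9 with 1.25 nM Strep-Eu and 20 nM AlexaFluor-tagged cyclic peptide (final) in 50 mM HEPES pH 7.4, 0.15 M NaCl, 5 mM CaCl2, 0.01% BSA, 0.01% P20, ≥2 h at room temperature. IC50 from sigmoidal fit, converted to Ki via peptide KD; falling Eu counts flagged false positives.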

PCSK9 [2] = molecular target: T1, PCSK9; experiment: PCSK9 Alexa FRET Plus assay (displacement of AlexaFluor647 tagged cyclic peptide Reagent B); conditions: 0.5 nM PCSK9, 960 nM AF cyclic peptide Reagent B
Description: A solution containing 1 nM biotinylated PCSK9+2.5 nM Lance Streptavidin Europium (Strep-Eu) was made in 50 mM HEPES pH 7.4, 0.15 M NaCl, 5 mM CaCl2), 0.01% BSA, and 0.01% Surfactant P20. A separate solution containing 1920 nM of the AlexaFluor tagged cyclic peptide was made in the same buffer system. An Echo was used to transfer 0.075 ul of compound plus 0.675 ul of DMSO to each well of an assay plate followed by the addition of 15 ul of PCSK9+Stept-Eu and 15 ul of AF peptide. The final assay volume was 30.750 ul containing 0.5 nM PCSK9, 1.25 nM Strep-Eu, and 960 nM AF cyclic peptide. The reaction was incubated at room temperature for at least two hours prior to fluorescence measurements using an Envision Multilabel Reader. IC50 values were determined by fitting data to a sigmoidal dose-response curve using nonlinear regression. Ki was then calculated from the IC50 and the KD of AF cyclic peptide. Counts (B-counts) of the europium-labeled PCSK9 were followed to observe if compounds were adversely affecting PCSK9. A fall off of the B-counts likely indicated a false positive of inhibition. Data from this procedure was reported as “P=‘numerical value’ (nanomolar)”

[3] = molecular target: human PCSK9 / human LDLR EGFa domain interaction (Homo sapiens (Human), UniProt Q8NBP7); experiment: TR-FRET assay of inhibition of the PCSK9-LDLR protein-protein interaction; conditions: TR-FRET, 20 nM human PCSK9, 20 nM human LDLR EGFa domain, 2 hours room temperature; read-out: IC50
Chain of human PCSK9 / human LDLR EGFa domain interaction (Q8NBP7 153-692): as above
Chain of human PCSK9 / human LDLR EGFa domain interaction (Q8NBP7 31-152 partner): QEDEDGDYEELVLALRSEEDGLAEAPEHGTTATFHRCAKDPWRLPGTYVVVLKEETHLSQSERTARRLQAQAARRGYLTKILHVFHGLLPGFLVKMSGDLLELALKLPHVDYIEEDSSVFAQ
In short: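 Compounds in dose-response are mixed with 20 nM human PCSK9 (avitag-biotinylated) and 20 nM his-tagged LDLR EGFa domain, plus 5 nM each streptavidin-Ulight and Eu-anti-6×His. After 2 h at room temperature in HEPES/NaCl/CaCl2 buffer with BSA and P20, TR-FRET is read and IC50 fitted (4-parameter).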

[4] = PCSK9 Alexa FRET Standard assay, read-out: IC50
[5] = Alexa FRET Plus, read-out: IC50

Row | SMILES | IC50 (PCSK9 [1]; [4]) | IC50 (PCSK9 [2]; [5]) | IC50 (PCSK9 [1]; IC50, PCSK9 Alexa FRET Standard assay) | IC50 (PCSK9 [2]; IC50, Alexa FRET Plus) | IC50 [3]
1 | CCCCCCCCCCCCCCCC(=O)N[C@@H](CCC(=O)NCCOCCOCC(=O)NCCOCCOCC(=O)NCCCC[C@H](NC(C)=O)C(=O)NCCOCCOCC(=O)N[C@@H]1CSCc2cccc(c2)CSC[C@@H](C(N)=O)NC(=O)[C@]2(C)CCCN2C(=O)[C@H](Cc2ccc(O)cc2)NC(=O)[C@H]([C@@H](C)O)NC(=O)N2C[C@@H](F)C[C@H]2C(=O)[C@H](Cc2c[nH]c3ccc(F)cc23)NC(=O)[C@H](Cc2c[nH]c3ccc(F)cc23)NC(=O)[C@@H](C)NC(=O)[C@H](C)NC1=O)C(=O)O [Compound 135] | 0.11 to 100 nM | 0.1 to 100 nM | – | – | –
2 | CCCCCCCCCCCCCCCC(=O)N[C@@H](CCC(=O)NCCOCCOCC(=O)NCCOCCOCC(=O)NCCCC[C@H](NC(=O)CCCCCCCCCCNC(=O)[C@@H]1CSCc2cccc(c2)CSCCC(=O)N[C@@H](CCCCN)C(=O)N[C@H](C)C(=O)N[C@@H](Cc2c[nH]c3ccc(F)cc23)C(=O)N[C@@H](Cc2c[nH]c3ccc(F)cc23)C(=O)N[C@@H](CC(=O)O)C(=O)N[C@@H](Cc2cnc[nH]2)C(=O)N[C@@H](Cc2ccc(O)cc2)C(=O)N2CCC[C@@]2(C)C(=O)N1)C(N)=O)C(=O)O [Compound 479] ([Mpa]K[dA][Trp(5-F)][Trp(5-F)]DHY[αMeP]C[Aun]K([AEEA-AEEA-γGlu-Palmitoyl])-NH2; linker 1-10 via mXylylene) | 0.11 to 100 nM | 500 to 5000 nM | – | – | –
3 | CC(=O)N[C@@H]1CCC/C=C/CO[C@H]2C[C@@H](C(N)=O)N(C2)C(=O)[C@H](Cc2ccc(O)cc2)NC(=O)[C@H](Cc2cnc[nH]2)NC(=O)[C@H](CC(=O)O)NC(=O)[C@H](Cc2c[nH]c3ccc(F)cc23)NC(=O)[C@H](Cc2c[nH]c3ccc(F)cc23)NC(=O)CNC1=O [Compound 420] | 100 to 1000 nM | 100 to 500 nM | – | – | –
4 | CCCCCCCCCCCCCCCC(=O)N[C@@H](CCC(=O)NCCOCCOCCOCCOCCOCCOCCOCCOCCOCCOCCOCCOCCC(=O)NCc1cccc(C[C@@H]2NC(=O)[C@@H](C)NC(=O)[C@H](CCCCN)NC(=O)CCSCc3cccc(c3)CSC[C@@H](C(N)=O)NC(=O)[C@]3(C)CCCN3C(=O)[C@H](Cc3ccc(O)cc3)NC(=O)[C@H](Cc3cnc[nH]3)NC(=O)[C@H](CC(=O)O)NC(=O)[C@H](Cc3c[nH]c4ccc(F)cc34)NC2=O)c1)C(=O)O [Compound 478] ([Mpa]K[dA][Phe(3-CH2NH2)]([PEG12-γGlu-Palmitoyl])[Trp(5-F)]DHY[αMeP]C-NH2; linker 1-10 via mXylylene) | 21000 to 50000 nM | 500 to 5000 nM | – | – | –
5 | C[C@@]12CCCN1C(=O)[C@H](Cc1ccc(O)cc1)NC(=O)CN1C(=O)[C@H](N=C(c3ccccc3)c3ccccc31)NC(=O)[C@H](Cc1c[nH]c3ccc(F)cc13)NC(=O)[C@H](Cc1c[nH]c3ccc(F)cc13)NC(=O)CNC(=O)[C@H](CCCCN)NC(=O)CCSCc1cccc(c1)CSC[C@@H](C(N)=O)NC2=O [Compound 121] | – | – | 0.11 to 100 nM | 0.1 to 100 nM | –
6 | CCC(=O)N[C@H]1CC(=O)NCCOc2ccc(cc2)C[C@@H](C(N)=O)NC(=O)[C@]2(C)CCCN2C(=O)[C@H](Cc2ccc(OC)cc2)NC(=O)[C@H]([C@@H](C)O)NC(=O)[C@@H]2C[C@H](F)CN2C(=O)[C@H](Cc2c[nH]c3ccc(F)cc23)NC(=O)[C@H](Cc2c[nH]c3ccc(F)cc23)NC(=O)[C@@H](C)NC(=O)[C@H](CCCCN)NC1=O [Compound 118] (Propionyl-DK[dA][Trp(5-F)][Trp(5-F)][Pro(cis-4-F)]TY(Me)[αMeP][AEF]-NH2; lactam 1-10) | 21000 to 50000 nM | 500 to 5000 nM | – | – | –
7 | COc1ccc(C[C@@H]2NC(=O)[C@H]([C@@H](C)O)NC(=O)[C@@H]3C[C@H](F)CN3C(=O)[C@H](Cc3c[nH]c4ccc(F)cc34)NC(=O)[C@H](Cc3c[nH]c4ccc(F)cc34)NC(=O)[C@@H](C)NC(=O)[C@H](CCCCN)NC(=O)[C@@H](NC(=O)C(F)(F)F)CC(=O)NCCOc3ccc(cc3)C[C@@H](C(N)=O)NC(=O)[C@]3(C)CCCN3C2=O)cc1 [Compound 124] (Tfa-DK[dA][Trp(5-F)][Trp(5-F)][Pro(cis-4-F)]TY(Me)[αMeP][AEF]-NH2; lactam 1-10) | 0.11 to 100 nM | 0.1 to 100 nM | – | – | –
8 | COc1ccc(C[C@@H]2NC(=O)[C@H]([C@@H](C)O)NC(=O)[C@@H]3CSCc4cccc(c4)CSC[C@H](NC(=O)[C@@H](C)NC(=O)[C@H](C)NC(=O)CCCCc4cccc(c4)CCCCNC(=O)[C@@H]4CCCN4C2=O)C(=O)N[C@@H](Cc2c[nH]c4ccc(F)cc24)C(=O)N3)cc1 [Compound 497] (cyclo(A[dA]C[Trp(5-F)]CTY(Me)P[X13]); linker 3-5 via mXylylene) | 100 to 1000 nM | – | – | – | 100 to 1000 nM
